Values after ≈ are worked out from the molar mass of the structure shown.

The test system of series [1] is Pseudomonas aeruginosa. Nature of the series: Antibacterial activity against Pseudomonas aeruginosa ATCC 27853 after 18 hrs by broth microdilution method. To be noted: ATCC 27853, 18 h. The series is classed as functional. For orientation: Broth dilution looks for growth in wells or tubes with falling amounts of substance.
For series [2], the system named is Escherichia coli. The series can be described thus: Antibacterial activity against Escherichia coli ATCC 25922 after 18 hrs by broth microdilution method. The note with it: ATCC 25922, 18 h. Format: functional.
The subject of series [3] is Salmonella typhimurium. Nature of the series: Antibacterial activity against […] ATCC 14028 after 18 hrs by broth microdilution method. Format: functional, Salmonella enterica subsp. enterica serovar Typhimurium. To be noted: Salmonella enterica, ATCC 14028, 18 h.
Series [4] concerns Proteus vulgaris. Nature of the series: Antibacterial activity against Proteus vulgaris ATCC 29905 after 18 hrs by broth microdilution method. Format: functional. To be noted: ATCC 29905, 18 h.
The subject of series [5] is Mycobacterium tuberculosis. The series can be described thus: Antitubercular activity against Mycobacterium tuberculosis H37Rv after 5 days by MABA method. The series is classed as functional. The note with it: 120 h. Background: The colour change of resazurin is a common sign of viable cells or microbes.
Series [6] concerns Staphylococcus aureus. Nature of the series: Antibacterial activity against Staphylococcus aureus ATCC 25923 after 18 hrs by broth microdilution method. Format: functional. To be noted: ATCC 25923, 18 h.
Series [7] in a line: Therapeutic index, ratio of CC50 for human MT4 cells to EC50 for HIV1 infected in human MT4 cells. The series is classed as toxicity, cell-based. The note with it: uninfected versus HIV1-infected, read-out: Ratio EC50.
The test system of series [8] is Rattus norvegicus. The series can be described thus: Antiinflammatory activity in carrageenan-induced paw edema Wistar rat model assessed as protection against edema formation up to 2000 mg/kg, po measured 3 hrs post dose relative to control. The series is classed as functional. Background: The carrageenan paw model is a standard test of acute inflammation.
Series [9] concerns Rattus norvegicus. The series can be described thus: Antiinflammatory activity in carrageenan-induced paw edema Fisher 344 rat model assessed as protection against carrageenan-induced edema at 0.01 mmol/kg, ip administered simultaneously with carrageenan measured at 3.5 hrs post carrageenan injection relative to control. The series is classed as functional. To be noted: Fisher 344, ip.

In series [10] the test system is Plasmodium falciparum. Nature of the series: Antiplasmodial activity against Plasmodium falciparum K1 infected in human erythrocytes preincubated for 24 hrs followed by [3H]hypoxanthine addition measured after 24 hrs by scintillation counting. The series is classed as functional, organism-based.
Series [11] has as its system Plasmodium falciparum. Nature of the series: Antiplasmodial activity against chloroquine-resistant Plasmodium falciparum FCR-3 infected in human erythrocytes after 3 days by [3H]-hypoxanthine incorporation assay. The series is classed as functional, organism-based. To be noted: FCR-3/Gambia.
Series [12] has as its system WI-38. The series can be described thus: Cytotoxicity against human WI38 cells assessed as cell growth inhibition after 48 hrs by SRB assay. The series is classed as cell-based. To be noted: WI-38, 48 h.
Series [13] in a line: Selectivity index, ratio of IC50 for human KB cells to IC50 for Plasmodium falciparum K1 infected in human erythrocytes. The series is classed as toxicity, cell-based. The note with it: read-out: Ratio IC50.
Series [14] deals with Rattus norvegicus. The series can be described thus: Antiinflammatory activity in carrageenan-induced paw edema rat model assessed as inhibition of carrageenan-induced edema relative to control. Format: functional.
In series [15] the test system is SK-N-SH. The series can be described thus: Antiproliferative activity against human SK-N-SH cells after 72 hrs by MTT assay. Format: functional, cell-based.
In series [16] the test system is IMR-32. The series can be described thus: Antiproliferative activity against human IMR32 cells after 72 hrs by MTT assay. Format: functional, cell-based. To be noted: IMR-32, 72 h.

What is called MIC is the lowest concentration found to suppress growth. Lower therefore signals greater potency. On to `O=c1[nH]c2ccccc2[nH]/c1=N/N=C/[C@@H]1O[C@H](CO)[C@@H](O[C@H]2O[C@H](CO)[C@@H](O)[C@H](O)[C@H]2O)[C@H](O)[C@H]1O`, for which the MIC came out at 2.07 µM (≈ 1.06 µg/mL) in series [1]; 2.07 µM (≈ 1.06 µg/mL) in series [2]; 2.07 µM (≈ 1.06 µg/mL) in [3]; 2.07 µM (≈ 1.06 µg/mL) in series [4]; 0.65 µM (≈ 0.333 µg/mL) in [5]; 2.07 µM (≈ 1.06 µg/mL) in series [6].
Regarding `Cc1cc2ncc(=O)n(CC(O)CO)c2cc1C` (stereo not given), the selectivity ratio in series [7] was 73.
Consider `Cc1nc2ccccc2nc1CCC(=O)N/N=C/c1ccco1`, for which the “inhibition (INH)” value in series [8] was 55.3 - 65.9%.
A word on the inhibition in vivo: it is the share of the control response that was lost under treatment. Regarding `COc1ccc2nc(C)c(-c3cc(-c4cc(OC)c(OC)c(OC)c4)nc(N)n3)nc2c1`, in [9], the inhibition in vivo at 10 µmol/kg stood at 41%.
Consider `O=c1[nH]c2ccccc2[nH]/c1=N/N=C/[C@@H]1O[C@H](CO)[C@@H](O[C@@H]2O[C@H](CO)[C@H](O)[C@H](O)[C@H]2O)[C@H](O)[C@H]1O`, for which the MIC in series [1] was 2.07 µM (≈ 1.06 µg/mL); in series [2], 2.07 µM (≈ 1.06 µg/mL); in series [3], 2.07 µM (≈ 1.06 µg/mL); in series [4] it was 2.07 µM (≈ 1.06 µg/mL); in series [5], 0.65 µM (≈ 0.333 µg/mL); in series [6] it was 2.07 µM (≈ 1.06 µg/mL).
The IC50 is the concentration at which inhibition is half-maximal. As for `COc1ccc2c(c1)[n+]([O-])c(C#N)c(-c1ccco1)[n+]2[O-]`, in series [10], the IC50 was 0.28 µM.
In the case of `Cc1c(C(=O)/C=C/c2ccc3ccccc3c2)[n+]([O-])c2ccccc2[n+]1[O-]`, in series [11], half-maximal inhibition (IC50) was put at 5.8 µM.
In the case of `Cc1nc2ccccc2nc1CCC(=O)N/N=C/c1ccccc1`, the “inhibition (INH)” value in series [8] is given as 55.3 - 65.9%.
In the case of `Brc1ccc2nc(N3CCCCC3)c3nnnn3c2c1`, in series [12], the half-maximal inhibitory concentration (IC50) was more than 100 mg/L.
Consider `N#Cc1c(-c2ccco2)[n+]([O-])c2ccccc2[n+]1[O-]`, for which the selectivity ratio in series [13] worked out at 10.3. In series [10], this compound showed a 50% inhibitory concentration (IC50) of 0.63 µM.
As to `Cc1nc2ccccc2nc1CCC(=O)N/N=C/c1ccc(Cl)cc1`, the “inhibition (INH)” value in [8] was 55.3 - 65.9%.
Consider `Brc1ccc2c(c1)n1nnnc1c1nnnn21`, for which the IC50 in series [12] was more than 100 mg/L.
Take `O=c1[nH]c2ccccc2[nH]/c1=N/N=C/[C@@H]1O[C@H](CO)[C@@H](O)[C@H](O)[C@H]1O`: the MIC turned out to be 2.07 µM (≈ 0.725 µg/mL) in series [1]; 2.07 µM (≈ 0.725 µg/mL) in series [2]; 2.07 µM (≈ 0.725 µg/mL) in [3]; 2.07 µM (≈ 0.725 µg/mL) in series [4]; 0.65 µM (≈ 0.228 µg/mL) in [5]; 2.07 µM (≈ 0.725 µg/mL) in series [6].
Regarding `COc1ccc2c(c1)c(CC(=O)O)c(C)n2C(=O)c1ccc(Cl)cc1` [INDOMETHACIN], the “inhibition (INH)” value in series [14] was found to be 79.5%. Moreover, the inhibition in vivo at 10 µmol/kg in [9] amounted to 47%.
With `Cc1nc2ccccc2nc1CCC(=O)N/N=C/c1ccc(N(C)C)cc1`, in series [8], the “inhibition (INH)” value is 55.3 - 65.9%.
On the same count and under the same terms, the same measure for `Cc1nc2ccccc2nc1CCC(=O)N/N=C/c1ccc(O)cc1`: 55.3 - 65.9%.
`O=c1[nH]c2ccccc2[nH]/c1=N/N=C/[C@@H]1O[C@H](CO)[C@@H](O)[C@H](O)[C@@H]1O`: the MIC is 2.07 µM (≈ 0.725 µg/mL) in series [1]; 2.07 µM (≈ 0.725 µg/mL) in series [2]; 2.07 µM (≈ 0.725 µg/mL) in series [3]; 2.07 µM (≈ 0.725 µg/mL) in series [4]; 0.65 µM (≈ 0.228 µg/mL) in [5]; 2.07 µM (≈ 0.725 µg/mL) in [6].
Consider `COc1ccc(/C=N/N=c2/[nH]c3ccccc3nc2CCC(=O)O)cc1`, for which the “inhibition (INH)” value in [14] stood at 66.04%.
Turning to `O=[N+]([O-])c1ccc(C2OC2c2cnc3ccccc3n2)o1` (stereo not given), the IC50 came out at 3.9 µM in [15] and 5 µM in series [16].
`COc1cc(/C=C/C(=O)c2c(C)[n+]([O-])c3ccccc3[n+]2[O-])cc(OC)c1OC` displayed an IC50 in series [11] of 6.2 µM.
As to `Cc1nc2ccccc2nc1CCC(=O)N/N=C/c1c[nH]c2ccccc12`, in series [8], the “inhibition (INH)” value is listed as 55.3 - 65.9%.
Regarding `Brc1ccc2nc(N3CCOCC3)c3nnnn3c2c1`, the IC50 in series [12] is more than 100 mg/L.
The same measure, in the same setting: the same measure for `[N-]=[N+]=Nc1nc2cc(Br)ccc2nc1Cl`: more than 100 mg/L.
Regarding `c1ccc2nccnc2c1` [QUINOXALINE], the IC50 in [15] was determined as 4.6 µM; in series [16] it was 13 µM.
For the compound `CC(C)Cc1ccc(C(C)C(=O)O)cc1` (stereo not given) [IBUPROFEN], the “inhibition (INH)” value in [8] is recorded as 73.5%.
As to `COc1ccc(/C=N/N=c2/[nH]c3ccc(C)cc3nc2CCC(=O)O)cc1`, the “inhibition (INH)” value in [14] was determined as 69.85%.

The record behind these values is ChEMBL document CHEMBL4251583, “Quinoxaline: An insight into the recent pharmacological advances” (Eur J Med Chem, 2018).
